Reference: publication PMC11016601, “Exploring the bioaccessibility and intestinal absorption of major classes of pure phenolic compounds using in vitro simulated gastrointestinal digestion” (Heliyon, 2024)
“And” between values parts separate entries of the source, which are not always exact repeats. Identical values can stand only once. Like-named read-outs stand apart in the source and are kept apart here. Marks after values point to notes of the source that are not given here.

What was measured:
[1] = Simulation of intestinal absorption using a dialysis membrane (3 kDa) after in vitro SGD
Source text: HPLC-grade methanol, water, and acetonitrile were supplied by Fisher Scientific Chemicals. The enzymes α-amylase (A1031), pepsin from porcine stomach mucosa (P7012), pancreatin from porcine pancreas (P7545), and bile salts (B863) were purchased from Sigma-Aldrich (Taufkirchen, Germany). The rabbit gastric extract (RGE15) with gastric lipase activity was purchased from Lipolytech (Marseille, France). The ethanol was purchased from Merck (Algés, Portugal). A dialysis membrane with a molecular pore size of 3 kDa was purchased from Spectra/Pro (Spectrum Lab, Breda, Netherlands).
(§1) Mouth digestion of each PC solution (1 mL) was diluted in 0.8 mL of simulated salivary fluid (SSF) and α-amylase (75 U mL-1). Then, the mixture was incubated for 2 min at 37 °C under agitation (200 rpm). In order to start gastric digestion, pH was adjusted to 3.0 using 1 M aqueous HCl and then, a pepsin solution (2000 U mL-1) and simulated gastric fluid (SGF) were added. Subsequently, the mixture was incubated for 2h, at 37 °C and 130 rpm orbital agitation for the stomach digestion. Finally, the small intestine digestion simulation was performed after pH adjustment to 7.0 using 1 M aqueous […] and the addition of pancreatin (100 U mL-1), bile salts solution (10 mM) and simulated intestinal fluid (SIF), during 2 h, at 37 °C with 45 rpm orbital agitation. Natural small intestine absorption was also simulated, by placing the remaining sample in a dialysis membrane, and immersed in distilled water overnight at room temperature.
Furthermore, to determine the intestinal absorption, the aliquots collected inside the dialysis membrane were analyzed. The concentration of these samples (from inside of the membrane) corresponds to the amount of each PC that has not passed through to the outside of the membrane.
(§2) The values of B% and IA% were the average of the three replicates performed, with the calculated standard deviation.

[2] = In vitro simulated gastrointestinal digestion (SGD, INFOGEST 2.0): concentration and bioaccessibility by UHPLC-DAD-MSn; conditions: for Bioaccessibility (%), initial solution (IS): reference
Procedure: Preliminary solubility tests in different solvents, namely water, sodium phosphate buffer (26.8 mM, pH 6.1), ethanol, and also a mixture of ethanol with both water and sodium phosphate buffer, were carried out for each PC (data not shown), to prevent erroneous data arising from compounds precipitation. Ethanol percentages used in these preliminary solubility tests were 10, 15, and 20% (v/v).
Each PC solubilized in ethanol:water (15% v/v) was then submitted to an in vitro SGD (INFOGEST 2.0), according to a standardized protocol (Fig. 2). In order to determine whether the interaction between the compounds and enzymes led to an underestimation of their content, each PC solution was submitted to the same digestion procedure, replacing the enzyme solutions with water, which were designed as controls, henceforth this will be the term used. Each sample and control were submitted to three independent in vitro digestion simulations, and after each digestion phase, a sample/control was collected and further analyzed and quantified by UHPLC-DAD-MSn.
as §1
At each sampling point, an aliquot (0.5 mL) from each of the three replicates was collected. The enzymatic activity was stopped immediately by adding pure methanol to each aliquot (1:1, v/v) to promote enzyme precipitation and subsequently centrifuged at 10 000 g and 4 °C for 5 min. The supernatants were filtered with a 0.2 μm nylon filter. To determine the concentration of each sample or control, it was considered the following dilution factor – 1:2, 1:4 and 1:8 for oral, gastric and intestinal digestion phase, respectively.
The bioaccessibility percentage (B%) of each PC was calculated using equation (1):(1) B(%)=[DS]/[IS]×100 where IS is the initial concentration of PCs in ethanol:water (15% v/v) solutions, DS is the concentration of each collected sample or control (without enzymes).
as §2
PCs were analyzed in a UHPLC system equipped with a variable loop Accela autosampler (set at 16 °C), an Accela 600 LC pump, and an Accela 80 Hz photo diode array detector (DAD) (Thermo Fisher Scientific, San Jose, CA, USA). Each sample was prepared in methanol:water (1:1, v/v) and filtered through a 0.2 μm nylon syringe filter. […] The mobile phase was composed of acetonitrile (A) and water:acetonitrile (99:1, v/v) (B), both with 0.1 % of formic acid. The gradient elution was performed as follows: 0–1min: 99% B; 1–17 min: 99-73% B, 17–20 min: 73-0% B, 20–25 min: 0–99% B, followed by re-equilibration of the column at 99% B for 4 min.

Caco-2 cell monolayers = conditions: Caco-2; ref Tourniaiere et al. (2005); cited from earlier work
[3] = controls (without enzymes), gastric phase
[4] = controls (without enzymes), initial solution
[5] = controls (without enzymes), intestinal phase
[6] = controls (without enzymes), oral phase
[7] = samples with enzymes, after gastric digestion pH 3.0
[8] = samples with enzymes, after intestinal digestion pH 7.0
[9] = samples with enzymes, after oral digestion
[10] = samples with enzymes, gastric phase
[11] = samples with enzymes, intestinal phase
[12] = samples with enzymes, oral phase
[13] = samples, initial ethanol:water (15% v/v) solution

| Compound | Concentration, dialysis phase (D) [1] | Bioaccessibility (%), gastric phase (G) [2, 3] | Concentration, gastric phase (G) [2, 3] [µg/mL] | Concentration, initial solution (IS) [2, 4] [µg/mL] | Bioaccessibility (%), initial solution (IS) [2, 4] | Bioaccessibility (%), intestinal phase (I) [2, 5] | Concentration, intestinal phase (I) [2, 5] [µg/mL] | Bioaccessibility (%), oral phase (O) [2, 6] | Concentration, oral phase (O) [2, 6] [µg/mL] | Concentration, gastric phase (G) [2, 7] [µg/mL] | Concentration, intestinal phase (I) [2, 8] [µg/mL] | Concentration, oral phase (O) [2, 9] [µg/mL] | Bioaccessibility (%), gastric phase (G) [2, 10] | Bioaccessibility (%), intestinal phase (I) [2, 11] | Bioaccessibility (%), oral phase (O) [2, 12] | Concentration, initial solution (IS) [2, 13] [µg/mL] | Bioaccessibility (%), initial solution (IS) ([2]; samples, initial solution) | Intestinal absorption (IA%) [1] | Bioaccessibility (%), oral phase (O) ([2]; 2 min) | Concentration, dialysis phase (D) ([1]; pig) [µg/mL] | further results |
| --- | --- | --- | --- | --- | --- | --- | --- | --- | --- | --- | --- | --- | --- | --- | --- | --- | --- | --- | --- | --- | --- |
| O=c1c(-c2ccc(O)cc2)coc2cc(O)ccc12 [DAID, daidzein] | below the detection limit | 70.95% and 70.95 ± 3.71 ^a % | 12.89 ± 0.67 | 18.17 | 100^ a % | 138.68% and 138.68 ± 9.01^ a % | 25.20 ± 1.64 | 78.35% and 78.35 ± 24.88^ a % | 14.24 ± 4.52 | 14.86 ± 1.98 | 28.72 ± 2.03 | 21.63 ± 5.52 | 81.78% and 81.78 ± 10.87 ^a % | 158.08% and 158.08 ± 11.20^ a % | 119.06% and 119.06 ± 30.41^ a % | 18.17 | 100^ a % |  |  |  |  |
| O=c1oc2c(O)c(O)cc3c(=O)oc4c(O)c(O)cc1c4c23 [EA, ellagic acid] | below the detection limit |  |  |  |  |  |  |  |  |  | 5.20 ± 0.10 | 4.78 ± 1.75 |  |  |  |  |  | very high |  |  |  |
| O=C(O[C@@H]1Cc2c(O)cc(O)cc2O[C@@H]1c1cc(O)c(O)c(O)c1)c1cc(O)c(O)c(O)c1 [EGCG, epigallocatechin-3-O-gallate] | below the detection limit | 61.53% and 61.53 ± 5.39 ^b % | 1272.99 ± 111.59 | 2068.93 | 100^ a % | 5.03% and 5.03 ± 0.81 ^d % | 104.15 ± 16.86 | 34.13% and 34.13 ± 1.91 ^c % | 706.03 ± 39.46 | 1473.22 ± 65.28 | 312.22 ± 46.76 | 789.50 ± 253.03 | 71.21% and 71.21 ± 3.16 ^a % | 15.09% and 15.09 ± 2.26 ^b % | 38.16% | 2068.93 | 100^ a % | very high | 38.16 ± 12.23^ b % |  |  |
| O=C1C[C@@H](c2ccc(O)cc2)Oc2cc(O)cc(O)c21 [NAR, (+)-naringenin] | 3.29 ± 0.96 µg/mL | 84.37% and 84.37 ± 4.60% | 301.86 ± 16.45 | 357.76 | 100% | 68.99% and 68.99 ± 33.64% | 246.82 ± 120.35 | 102.62% and 102.62 ± 1.12% | 367.13 ± 4.00 | 282.96 ± 24.94 | 233.10 ± 102.39 | 347.95 ± 19.67 | 79.09% and 79.09 ± 6.97% | 65.15% and 65.15 ± 28.62% | 97.26% | 357.76 | 100% |  | 97.26 ± 5.50% | 17.50 ± 3.80 |  |
| C[C@@H]1O[C@@H](O[C@H]2[C@H](Oc3cc(O)c4c(c3)O[C@H](c3ccc(O)cc3)CC4=O)O[C@H](CO)[C@@H](O)[C@@H]2O)[C@H](O)[C@H](O)[C@H]1O [NARN, naringin] | 4.46 ± 0.44 µg/mL | 132.25 ± 6.73^ a % | 332.53 ± 16.91 | 251.44 | 100 ^a % |  | 319.15 ± 27.85 | 128.18 ± 14.55^ a % | 322.30 ± 36.59 | 365.14 ± 71.37 | 351.21 ± 53.27 |  | 145.2% and 145.22 ± 28.38^ a % | 139.68% and 139.68 ± 21.19^ a % | 133.2% | 251.44 | 100 ^a % |  | 133.20 ± 16.03^ a % | 17.29 ± 1.75 | Papp value of apical to basolateral direction (Caco-2 cell monolayers): low; Concentration, oral phase (O) ([2]; 2 min): 334.93 ± 40.32 µg/mL |
| Oc1cc(O)cc(O)c1 [PG, phloroglucinol] | 225.29 ± 125.33 µg/mL | 91.32% and 91.32 ± 3.79 ^a % | 4765.51 ± 197.78 | 5218 | 100 ^a % | 94.91% and 94.91 ± 5.32 ^a % | 4952.79 ± 277.44 | 94.08% and 94.08 ± 1.84 ^a % | 4909.58 ± 96.26 | 4910.12 ± 200.81 | 8339.90 ± 994.21 | 4841.66 ± 308.60 | 94.09% and 94.09 ± 3.85^ b % | 159.82% and 159.82 ± 19.05^ a % | 92.78% | 5218 | 100^ b % |  | 92.78 ± 5.91^ b % | 555.31 ± 145.46 |  |
